The numbers were not newly measured in US12163116B2, “Automated bioreactor with foam collector” (OHIO STATE INNOVATION FOUNDATION, priority 2018, dated 2024), which cites them from elsewhere.

In one data set the test system is L. innocua. The following applies: against L. innocua; taught by prior art.
In data set [1] the test system is Gram-positive bacteria including species of Listeria, Clostridium, Lactobacillus, Staphylococcus, Bacillus.
The conditions of data set [2]: compared to commercially available lantibiotics such as nisin.

paenibacillin: the water solubility result is “highly water soluble”. Also, the minimum inhibitory concentration in the data set on L. innocua is 4 µg/mL. Further, the antimicrobial potency entry in data set [1] was “potent against Gram-positive bacteria”. In addition, in data set [2], the “temperature and pH stability” value was “relatively high temperature and pH stability”.
